Non-standard residues stand in square brackets, D forms with d. Residues, ends and D or L forms follow the SMILES beside them. *: point of attachment. DOTA = O=C(O)CN1CCN(CC(=O)O)CCN(CC(=O)*)CCN(CC(=O)O)CC1; Bpa = N[C@@H](Cc1ccc(C(=O)c2ccccc2)cc1)C(=O)O; d2Nal = N[C@H](Cc1ccc2ccccc2c1)C(=O)O; azaGly = NNC(=O)O; Sar = CNCC(=O)O
These compounds were tested on LHRH binding sites on human ovarian cancer cells (EFO-27). Conditions: not given.
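Note: Cell-associated radioactivity on confluent EFO-27 monolayers in 96-well plates, measured by microplate scintillation counting.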

Row | EC50 [µM] | Compound
1 | 3.55 | CN(CC(=O)N[C@@H](Cc1c[nH]cn1)C(=O)N[C@@H](Cc1c[nH]c2ccccc12)C(=O)N[C@@H](CO)C(=O)N[C@@H](Cc1c[nH]cn1)C(=O)N[C@H](CCCNC(=N)N)C(=O)N[C@@H](Cc1c[nH]c2ccccc12)C(=O)N[C@@H](Cc1ccc(CN)cc1)C(=O)N1CCC[C@H]1C(=O)NNC(N)=O)C(=O)CN1CCN(CC(=O)O)CCN(CC(=O)O)CCN(CC(=O)O)CC1 [BRU-2760]
2 | 0.54 | CN(CC(=O)N[C@@H](Cc1c[nH]cn1)C(=O)N[C@@H](Cc1c[nH]c2ccccc12)C(=O)N[C@@H](CO)C(=O)N[C@@H](Cc1c[nH]cn1)C(=O)N[C@H](CCCNC(=N)N)C(=O)N[C@@H](Cc1c[nH]c2ccccc12)C(=O)N[C@@H](Cc1cccc2ccccc12)C(=O)N1CCC[C@H]1C(=O)NNC(N)=O)C(=O)CN1CCN(CC(=O)O)CCN(CC(=O)O)CCN(CC(=O)O)CC1 [BRU-2720]
3 | 0.22 | CNCC(=O)N[C@@H](CCCNC(=N)N)C(=O)N[C@@H](Cc1c[nH]c2ccccc12)C(=O)N[C@@H](CO)C(=O)N[C@@H](Cc1c[nH]cn1)C(=O)N[C@H](CCCNC(=N)N)C(=O)N[C@@H](Cc1c[nH]c2ccccc12)C(=O)N[C@@H](Cc1ccc(C(=O)c2ccccc2)cc1)C(=O)N1CCC[C@H]1C(=O)NCCOCCN [compound 3007]
4 | 0.23 to 0.5 | CNCC(=O)N[C@@H](CCCNC(=N)N)C(=O)N[C@@H](Cc1c[nH]c2ccccc12)C(=O)N[C@@H](CO)C(=O)N[C@@H](Cc1c[nH]cn1)C(=O)N[C@H](CCCNC(=N)N)C(=O)N[C@@H](Cc1c[nH]c2ccccc12)C(=O)N[C@@H](Cc1ccc(C(=O)c2ccccc2)cc1)C(=O)N1CCC[C@H]1C(=O)NCCCCCNC(=O)CN1CCN(CC(=O)O)CCN(CC(=O)O)CCN(CC(=O)O)CC1 [BRU-3085]
5 | 1.13 | N=C(N)NCCC[C@H](NC(=O)[C@@H](Cc1ccc2ccccc2c1)NC(=O)CN1CCN(CC(=O)O)CCN(CC(=O)O)CCN(CC(=O)O)CC1)C(=O)N[C@@H](Cc1c[nH]c2ccccc12)C(=O)N[C@@H](CO)C(=O)N[C@@H](Cc1c[nH]cn1)C(=O)N[C@H](CCCNC(=N)N)C(=O)N[C@@H](Cc1c[nH]c2ccccc12)C(=O)N[C@@H](Cc1ccc(C(=O)c2ccccc2)cc1)C(=O)N1CCC[C@H]1C(=O)NCCCO [compound 2982]
6 | 0.93 | N=C(N)NCCC[C@H](NC(=O)[C@@H](Cc1ccc2ccccc2c1)NC(=O)CN1CCN(CC(=O)O)CCN(CC(=O)O)CCN(CC(=O)O)CC1)C(=O)N[C@@H](Cc1c[nH]c2ccccc12)C(=O)N[C@@H](CO)C(=O)N[C@@H](CCCNC(N)=O)C(=O)N[C@H](CCCNC(=N)N)C(=O)N[C@@H](Cc1c[nH]c2ccccc12)C(=O)N[C@@H](Cc1ccc(C(=O)c2ccccc2)cc1)C(=O)N1CCC[C@H]1C(=O)NNC(N)=O [BRU-3030]
7 | 0.76 | CN(C(=O)CN1CCN(CC(=O)O)CCN(CC(=O)O)CCN(CC(=O)O)CC1)[C@H](Cc1ccc2ccccc2c1)C(=O)N[C@@H](Cc1c[nH]cn1)C(=O)N[C@@H](Cc1c[nH]c2ccccc12)C(=O)N[C@@H](CO)C(=O)N[C@@H](Cc1c[nH]cn1)C(=O)N[C@H](CCCNC(=N)N)C(=O)N[C@@H](Cc1c[nH]c2ccccc12)C(=O)N[C@@H](Cc1ccc(C(=O)c2ccccc2)cc1)C(=O)N1CCC[C@H]1C(=O)NNC(N)=O [BRU-3003]
8 | 0.46 | N=C(N)NCCC[C@H](NC(=O)[C@@H](Cc1ccc2ccccc2c1)NC(=O)CN1CCN(CC(=O)O)CCN(CC(=O)O)CCN(CC(=O)O)CC1)C(=O)N[C@@H](Cc1c[nH]c2ccccc12)C(=O)N[C@@H](CO)C(=O)N[C@@H](Cc1c[nH]cn1)C(=O)N[C@H](CCCNC(=N)N)C(=O)N[C@@H](Cc1c[nH]c2ccccc12)C(=O)N[C@@H](Cc1ccc(C(=O)c2ccccc2)cc1)C(=O)N1CCC[C@H]1C(=O)NCCOCCNC(=N)N [compound 2985]
9 | 0.45 | COc1ccccc1CNC(=O)[C@@H]1CCCN1C(=O)[C@H](Cc1ccc(C(=O)c2ccccc2)cc1)NC(=O)[C@H](Cc1c[nH]c2ccccc12)NC(=O)[C@@H](CCCNC(=N)N)NC(=O)[C@H](Cc1c[nH]cn1)NC(=O)[C@H](CO)NC(=O)[C@H](Cc1c[nH]c2ccccc12)NC(=O)[C@H](CCCNC(=N)N)NC(=O)[C@@H](Cc1ccc2ccccc2c1)NC(=O)CN1CCN(CC(=O)O)CCN(CC(=O)O)CCN(CC(=O)O)CC1 [compound 3020]

Same assay, conditions: EFO-27 cells, competition with [125I-Tyr8]BRU-2477, 90 min

Row | Compound | EC50 [µM]
10 | N=C(N)NCCC[C@H](NC(=O)[C@@H](Cc1ccc2ccccc2c1)NC(=O)CN1CCN(CC(=O)O)CCN(CC(=O)O)CCN(CC(=O)O)CC1)C(=O)N[C@@H](Cc1c[nH]c2ccccc12)C(=O)N[C@@H](CO)C(=O)N[C@@H](Cc1c[nH]cn1)C(=O)N[C@H](CCCNC(=N)N)C(=O)N[C@@H](Cc1c[nH]c2ccccc12)C(=O)N[C@@H](Cc1ccc(C(=O)c2ccccc2)cc1)C(=O)N1CCC[C@H]1C(=O)NCC(=O)NCCCCO [compound 2986] | 1.66
11 | N=C(N)NCCC[C@H](NC(=O)CNC(=O)[C@@H]1CCCN1C(=O)[C@H](Cc1ccc(C(=O)c2ccccc2)cc1)NC(=O)[C@H](Cc1c[nH]c2ccccc12)NC(=O)[C@@H](CCCNC(=N)N)NC(=O)[C@H](Cc1c[nH]cn1)NC(=O)[C@H](CO)NC(=O)[C@H](Cc1c[nH]c2ccccc12)NC(=O)[C@H](CCCNC(=N)N)NC(=O)[C@@H](Cc1ccc2ccccc2c1)NC(=O)CN1CCN(CC(=O)O)CCN(CC(=O)O)CCN(CC(=O)O)CC1)C(N)=O [compound 2969] ({DOTA}-[d2Nal]RWSH[dR]W[Bpa]PGR-NH2) | 0.24
12 | CN(CC(=O)N[C@@H](Cc1c[nH]cn1)C(=O)N[C@@H](Cc1c[nH]c2ccccc12)C(=O)N[C@@H](CO)C(=O)N[C@@H](Cc1ccc(O)cc1)C(=O)N[C@H](CCCNC(=N)N)C(=O)N[C@@H](Cc1c[nH]c2ccccc12)C(=O)N[C@@H](Cc1ccc(C(=O)c2ccccc2)cc1)C(=O)N1CCC[C@H]1C(=O)NNC(N)=O)C(=O)CN1CCN(CC(=O)O)CCN(CC(=O)O)CCN(CC(=O)O)CC1 [BRU-2668] ({DOTA}-[Sar]HWSY[dR]W[Bpa]P[azaGly]-NH2; C-terminus assumed) | 3.47
13 | N=C(N)NCCC[C@H](NC(=O)[C@@H](Cc1ccc2ccccc2c1)NC(=O)CN1CCN(CC(=O)O)CCN(CC(=O)O)CCN(CC(=O)O)CC1)C(=O)N[C@@H](Cc1c[nH]c2ccccc12)C(=O)N[C@@H](CO)C(=O)N[C@@H](Cc1c[nH]cn1)C(=O)N[C@H](CCCNC(=N)N)C(=O)N[C@@H](Cc1c[nH]c2ccccc12)C(=O)N[C@@H](Cc1ccc(C(=O)c2ccccc2)cc1)C(=O)N1C[C@@H](N)C[C@H]1C(=O)NNC(N)=O [compound 3062] | 0.32
14 | CN(CC(=O)N[C@@H](Cc1c[nH]cn1)C(=O)N[C@@H](Cc1c[nH]c2ccccc12)C(=O)N[C@@H](CO)C(=O)N[C@@H](Cc1c[nH]cn1)C(=O)N[C@H](CO)C(=O)N[C@@H](Cc1c[nH]c2ccccc12)C(=O)N[C@@H](Cc1ccc(C(=O)c2ccccc2)cc1)C(=O)N1CCC[C@H]1C(=O)NNC(N)=O)C(=O)CN1CCN(CC(=O)O)CCN(CC(=O)O)CCN(CC(=O)O)CC1 [compound 2761] ({DOTA}-[Sar]HWSH[dS]W[Bpa]P[azaGly]-NH2) | 13.6
15 | N=C(N)NCCC[C@H](NC(=O)[C@@H](Cc1ccc2ccccc2c1)NC(=O)CN1CCN(CC(=O)O)CCN(CC(=O)O)CCN(CC(=O)O)CC1)C(=O)N[C@@H](Cc1c[nH]c2ccccc12)C(=O)N[C@@H](CO)C(=O)N[C@@H](Cc1c[nH]cn1)C(=O)N[C@H](CCCNC(=N)N)C(=O)N[C@@H](Cc1c[nH]c2ccccc12)C(=O)N[C@@H](Cc1ccc(C(=O)c2ccccc2)cc1)C(=O)N1CCCC[C@H]1C(=O)NNC(N)=O [compound 2996] | 0.35

Same assay, conditions: Table 5: modifications of amino acids at positions 1 and 2; in vitro binding on EFO-27 cells

Row | Compound | EC50 [µM]
16 | N=C(N)NCCC[C@@H](NC(=O)[C@H](Cc1c[nH]cn1)NC(=O)[C@H](CO)NC(=O)[C@H](Cc1c[nH]c2ccccc12)NC(=O)[C@H](Cc1c[nH]cn1)NC(=O)CNC(=O)CNC(=O)CN1CCN(CC(=O)O)CCN(CC(=O)O)CCN(CC(=O)O)CC1)C(=O)N[C@@H](Cc1c[nH]c2ccccc12)C(=O)N[C@@H](Cc1ccc(C(=O)c2ccccc2)cc1)C(=O)N1CCC[C@H]1C(=O)NNC(N)=O [BRU-2795] | 1.37
17 | N=C(N)NCCC[C@H](NC(=O)[C@H]1Cc2ccccc2CN1C(=O)CNC(=O)CN1CCN(CC(=O)O)CCN(CC(=O)O)CCN(CC(=O)O)CC1)C(=O)N[C@@H](Cc1c[nH]c2ccccc12)C(=O)N[C@@H](CO)C(=O)N[C@@H](Cc1c[nH]cn1)C(=O)N[C@H](CCCNC(=N)N)C(=O)N[C@@H](Cc1c[nH]c2ccccc12)C(=O)N[C@@H](Cc1ccc(C(=O)c2ccccc2)cc1)C(=O)N1CCC[C@H]1C(=O)NNC(N)=O [BRU-3067] | 0.51
18 | CCN(CC(=O)N[C@@H](Cc1c[nH]cn1)C(=O)N[C@@H](Cc1c[nH]c2ccccc12)C(=O)N[C@@H](CO)C(=O)N[C@@H](Cc1c[nH]cn1)C(=O)N[C@H](CCCNC(=N)N)C(=O)N[C@@H](Cc1c[nH]c2ccccc12)C(=O)N[C@@H](Cc1ccc(C(=O)c2ccccc2)cc1)C(=O)N1CCC[C@H]1C(=O)NNC(N)=O)C(=O)CN1CCN(CC(=O)O)CCN(CC(=O)O)CCN(CC(=O)O)CC1 [BRU-2788] | 0.21
19 | CN(CC(=O)N[C@@H](Cc1ccccc1)C(=O)N[C@@H](Cc1c[nH]c2ccccc12)C(=O)N[C@@H](CO)C(=O)N[C@@H](Cc1c[nH]cn1)C(=O)N[C@H](CCCNC(=N)N)C(=O)N[C@@H](Cc1c[nH]c2ccccc12)C(=O)N[C@@H](Cc1ccc(C(=O)c2ccccc2)cc1)C(=O)N1CCC[C@H]1C(=O)NNC(N)=O)C(=O)CN1CCN(CC(=O)O)CCN(CC(=O)O)CCN(CC(=O)O)CC1 [BRU-2738] ({DOTA}-[Sar]FWSH[dR]W[Bpa]P[azaGly]-NH2) | 1.22

Same assay, conditions: Table 19: analogs used in the stabilization studies

Row | EC50 [µM] | Compound
20 | 0.6 | BRU-2994: DO3A10CM-Dnal2-R-W-S-H-r-W-Bpa4-Flp4-azaG

Same assay, conditions: read-out: EC50 μM; Underivatized LHRH peptides and LHRH peptides with chelator on N-terminus; EFO-27 cells

Row | Compound | EC50 [µM]
21 | BRU-2994: DO3A10CM-Dnal2-R-W-S-H-r-W-Bpa4-Flp4-azaG | 0.6
22 | N=C(N)NCCC[C@H](NC(=O)[C@@H](Cc1ccc2ccccc2c1)NC(=O)CC[C@H](CCCCN)NC(=O)CN1CCN(CC(=O)O)CCN(CC(=O)O)CCN(CC(=O)O)CC1)C(=O)N[C@@H](Cc1c[nH]c2ccccc12)C(=O)N[C@@H](CO)C(=O)N[C@@H](Cc1c[nH]cn1)C(=O)N[C@H](CCCNC(=N)N)C(=O)N[C@@H](Cc1c[nH]c2ccccc12)C(=O)N[C@@H](Cc1ccc(C(=O)c2ccccc2)cc1)C(=O)N1CCC[C@H]1C(=O)NCCOCCOCCN [BRU-3100] | 0.14

Source: patent US20120045393A1 (priority 2009, published 2012)
